Legend:
[1] = test system: tubulin (microtubular protein isolated from calf brain); test: Tubulin Polymerization Inhibition (TPI) assay, turbidity; type: biochemical; details: 1.5 mg/mL microtubular protein; for TPI % 10 µM: compound at 10 µM
Protocol: The effect of all the synthesized compounds on the in vitro tubulin polymerization was evaluated at 10 µM. All the compounds that inhibited polymerization more than 30% were also assayed at 20 µM. IC50 values were calculated for those compounds inhibiting tubulin polymerization by at least 50% at 20 µM (Table 1 and Supplemental Figure S2).
Microtubular protein was isolated from calf brain according to the modified Shelanski method by two cycles of temperature-dependent assembly/disassembly and stored at −80 °C. Before each use, protein concentration was determined by the Bradford method taking BSA as standard.
Tubulin polymerization was monitored using a Helios α spectrophotometer by measuring the increase in turbidity at 450 nm, caused by a shift from 4 °C to 37 °C, which allows the in vitro microtubular protein to depolymerize and polymerize, respectively. The assay was carried out in quartz cuvettes containing 1.5 mg/mL microtubular protein and the ligand (except for control cuvette with only DMSO at the same concentration) in a mixture of 0.1 M MES buffer, 1 mM EGTA, 1 mM MgCl2, 1 mM β-ME, and 1.5 mM GTP at pH 6.7 (final volume 500 µL). Cuvettes were preincubated at 20 °C for 30 min, to allow ligand binding to tubulin, and subsequently cooled on ice for 10 min. Then, the experiment starts at 4 °C to establish the initial baseline. The assembly process was initiated by a temperature shift to 37 °C and the turbidity produced by tubulin polymerization can be measured by an absorbance increase. After reaching a stable plateau, the temperature was switched back to 4 °C to return to the initial absorption values (to confirm the reversible nature of the monitored process and to determine whether or not the microtubular tubular protein has stabilized). The difference in amplitude between the stable plateau and the initial baseline of the curves was taken as the degree of tubulin polymerization for each experiment. Comparison with control curves under identical conditions but without ligands yielded TPI as a percentage value. All compounds were tested at 10 µM concentration. Compounds that inhibited tubulin polymerization by at least 30% at 10 µM were tested at 20 µM. IC50 values were calculated for compounds that inhibit tubulin polymerization by more than 50% at 20 µM. Compounds were dissolved in DMSO, and the final solvent concentration never exceeded 4% (v/v), which has been reported not to interfere with the assembly process. All the measurements were carried out in at least two independent experiments using microtubular protein from different preparations.

[2] = test system: HeLa (cervix epithelioid carcinoma); test: Antiproliferative activity against HeLa (XTT colorimetric method); type: cell-based; details: Homo sapiens, 72 h treatment
Protocol: (§1) The in vitro antiproliferative activity of MDS at 1 µM after 72 h treatments was evaluated by a colorimetric method against the human tumor cell lines HeLa (cervix epithelioid carcinoma) and MCF7 (breast adenocarcinoma). Compounds showing more than 40% inhibition at 1 µM in at least three independent assays were evaluated in a range of concentrations between 0.1 nM and 10 µM for the determination of half-maximal inhibitory concentrations (IC50) (Table 1). Paclitaxel, CA-4, and ABT-751 were used as references.
(§2) MCF7 (human breast carcinoma), SKOV-3 (human ovarian carcinoma), OVCAR-3 (human ovarian carcinoma), OVCAR-8 (human ovarian carcinoma), and HeLa (human cervical carcinoma) cell lines were cultured in Dulbecco’s Modified Eagle’s Medium (DMEM) (Gibco, Thermo Fischer Scientific) containing 10% (v/v) heat-inactivated fetal bovine serum (HIFBS) (Lonza-Cambrex, Karlskoga, Sweden), 2 mM L-glutamine (Lonza-Cambrex, Karlskoga, Sweden), 100 μg/mL streptomycin, and 100 IU/mL penicillin (Lonza-Cambrex) at 37 °C in humidified 95% air and 5% CO2. HT-29 (human colon carcinoma), IGROV-1 (human ovarian carcinoma), and A2780 (human ovarian carcinoma) cell lines were cultured in RPMI 1640 medium (Gibco, Thermo Fischer Scientific) supplemented with 10% HIFBS, 100 μg/mL streptomycin, and 100 IU/mL penicillin at 37 °C in humidified 95% air and 5% CO2 atmosphere. The presence of mycoplasma was routinely checked with MycoAlert kit (Lonza-Cambrex) and only mycoplasma-free cells were used in the experiments. Ovarian tumor cell lines were originally acquired from Dr Atanasio Pandiella from Centro de Investigación del Cáncer (CIC), Salamanca, Spain. HeLa, HT-29 and MCF7 tumor cell lines were provided by Dr Faustino Mollinedo from Centro de Investigaciones Biológicas Margarita Salas, Madrid, Spain.
(§3) MCF7, HeLa, and HT-29 cell proliferation, when treated with the corresponding compounds, were determined using the XTT (sodium 3’-[1(phenylaminocarbonyl)-3,4-tetrazolium]-bis(4-methoxy-6-nitro)-benzenesulfonic acid hydrate) cell proliferation kit (Roche Molecular Biochemicals, Mannheim, Germany). A freshly prepared mixture of XTT labeling reagent with 0.02% (v/v) PMS (N-methyl-dibenzopyrazine methyl sulfate) electron coupling reagent was added to cells (50 µL/well in 96-well plates, total volume of 160 µL/well). Cells were incubated under standard culture conditions for 4 h (MCF7 and HeLa) or 6 h (HT-29). The absorbance of the formazan product generated was measured at 450 nm using a multi-well plate reader. SKOV-3, OVCAR-3, OVCAR-8, IGROV-1, A-2780 cell proliferation, when treated with the corresponding compound, were determined using MTT (3-(4,5-dimethylthiazol-2-yl)-2,5-diphenyl-2H-tetrazolium bromide) (Sigma-Aldrich, St. Louis, MO, USA). MTT in Phosphate Buffer Saline (PBS) (5 mg/ml) was added to cells (110 µL/well in 24-well plates, total volume of 1110 µL/well). After 1 hour of incubation, the medium was aspirated, and formazan violet crystals were dissolved in dimethyl sulfoxide (DMSO) (500 µL/well). Absorbance was measured at 570 nm in a plate reader (Ultra Evolution, Tecan, Männedorf, Suiza). To determine cell viability, cells in exponential growth phase were seeded (100 µL/well in 96-well plates and 1000 µL/well in 24-well plates) with appropriate cell line concentration (1.5·10^4 cells/mL for MCF7 and HeLa, 3·10^4 cells/mL for HT-29, and 1·10^4 cells/mL for SKOV-3, OVCAR-3, OVCAR-8, IGROV-1, and A-2780) in complete RPMI 1640 or DMEM medium at 37°C and 5% CO2 atmosphere. After 24 h incubation, to allow cells to attach to the plates, all compounds were added at 1 µM concentration and the effect on the proliferation was evaluated 72 h post-treatment. Compounds showing antiproliferative effects at tested concentration were selected for IC50 calculation (50% inhibitory concentration with respect to the untreated controls) from 10^−5 to 10^−10 M concentration. Non-linear curves fitting the experimental data were carried out for each compound. […]

[3] = test system: MCF7 (breast adenocarcinoma); test: Antiproliferative activity against MCF7 (XTT colorimetric method); type: cell-based; details: Homo sapiens, 72 h treatment
Protocol: as §1, §2, §3

Row | SMILES | IC50 [1] | IC50 [2] | IC50 [3] | TPI % 10 µM [1]
1 | COc1cc(NS(=O)(=O)c2ccc(N(C)C)cc2)cc(OC)c1OC [Compound 28] | > 20000 nM | 230 nM | 173 nM | 0%
2 | COc1cc(N(C)S(=O)(=O)c2ccc(N(C)C)cc2)cc(OC)c1OC [Compound 29a] | > 20000 nM | 63 nM | 30 nM | 40%
3 | COc1ccc(S(=O)(=O)N(C)c2cc(OC)c(OC)c(OC)c2)cc1 [Compound 2a] | > 20000 nM | 71 nM | 127 nM | 35%
4 | COc1ccc(S(=O)(=O)Nc2cc(OC)c(OC)c(OC)c2NC(=O)CNC(=O)OC(C)(C)C)cc1 [Compound 21] | > 20000 nM | > 1000 nM | > 1000 nM | 0%
5 | CNc1cc(S(=O)(=O)N(C)c2cc(OC)c(OC)c(OC)c2)ccc1OC [Compound 48a] | > 20000 nM | 440 nM | 1190 nM | 2%
6 | COc1ccc(S(=O)(=O)N(CCBr)c2cc(OC)c(OC)c(OC)c2)cc1 [Compound 4] | > 20000 nM | 94 nM | 340 nM | 30%
7 | COc1cc(N(CC(=O)O)S(=O)(=O)c2ccc(N(C)C)cc2)cc(OC)c1OC [Compound 34] | > 20000 nM | > 1000 nM | > 1000 nM | 6%
8 | CNc1ccc(S(=O)(=O)N(C)c2cc(OC)c(OC)c(OC)c2)cc1 [Compound 38] | 10000 nM | 44 nM | 61 nM | 47%
9 | COc1ccc(S(=O)(=O)N(CC#N)c2cc(OC)c(OC)c(OC)c2)cc1N [Compound 44] | > 20000 nM | 60 nM | 8 nM | 5%
10 | COc1cc(NS(=O)(=O)c2ccc([N+](=O)[O-])cc2)cc(OC)c1OC [Compound 25] | > 20000 nM | > 1000 nM | > 1000 nM | 0%
11 | COc1ccc(S(=O)(=O)N(c2cc(OC)c(OC)c(OC)c2)S(=O)(=O)c2ccc(OC)cc2)cc1 [Compound 1b] | > 20000 nM | > 1000 nM | > 1000 nM | 0%
12 | COc1ccc(S(=O)(=O)N(C(C)=O)c2cc(OC)c(OC)c(OC)c2)cc1 [Compound 5] | > 20000 nM | 287 nM | 270 nM | 0%
13 | COc1ccc(S(=O)(=O)N(C)c2cc(OC)c(OC)c(OC)c2)cc1N(C)C [Compound 48b] | > 20000 nM | > 1000 nM | > 1000 nM | 0%
14 | COc1cc(N(C(C)=O)S(=O)(=O)c2ccc(N(C)C)cc2)cc(OC)c1OC [Compound 31] | 14000 nM | 183 nM | 135 nM | 38%
15 | COc1ccc(S(=O)(=O)n2cnc3c(OC)c(OC)c(OC)cc32)cc1 [Compound 24] | > 20000 nM | > 1000 nM | > 1000 nM | 0%

Now from value to molecule, other results behind:

Row | IC50 [1] | IC50 [2] | IC50 [3] | SMILES | TPI % 10 µM [1]
16 | > 20000 nM | > 1000 nM | > 1000 nM | COc1cc(NS(=O)(=O)c2ccc(NC=O)cc2)cc(OC)c1OC [Compound 36] | 0%
17 | > 20000 nM | > 1000 nM | > 1000 nM | COc1cc(N(C)S(=O)(=O)c2ccc(N)cc2)cc(OC)c1OC [Compound 27] | 0%
18 | > 20000 nM | > 1000 nM | > 1000 nM | COc1ccc(S(=O)(=O)Nc2cc(OC)c(OC)c(OC)c2NC=O)cc1 [Compound 17] | 4%
19 | 12000 nM | 23 nM | 26 nM | COc1ccc(S(=O)(=O)N(C)c2cc(OC)c(OC)c(OC)c2)cc1N [Compound 42] | 41%
20 | > 20000 nM | 143 nM | 275 nM | COc1ccc(S(=O)(=O)N(CC#N)c2cc(OC)c(OC)c(OC)c2)cc1 [Compound 6] | 0%
21 | > 20000 nM | > 1000 nM | > 1000 nM | COc1ccc(S(=O)(=O)Nc2cc(OC)c(OC)c(OC)c2NCN(c2cc(OC)c(OC)c(OC)c2N)S(=O)(=O)c2ccc(OC)cc2)cc1 [Compound 14] | 0%
22 | > 20000 nM | > 1000 nM | > 1000 nM | COc1ccc(S(=O)(=O)N(C)c2cc(OC)c(OC)c(OC)c2N)cc1 [Compound 13] | 0%
23 | > 20000 nM | > 1000 nM | > 1000 nM | COc1ccc(S(=O)(=O)N(CC(=O)O)c2cc(OC)c(OC)c(OC)c2)cc1 [Compound 8] | 0%
24 | > 20000 nM | > 1000 nM | > 1000 nM | COc1cc(NS(=O)(=O)c2ccc(N)cc2)cc(OC)c1OC [Compound 26] | 0%
25 | > 20000 nM | 210 nM | 48 nM | CCOC(=O)CNc1cc(S(=O)(=O)N(C)c2cc(OC)c(OC)c(OC)c2)ccc1OC [Compound 46] | 13%
26 | > 20000 nM | 99 nM | 91 nM | CCOC(=O)CN(c1cc(OC)c(OC)c(OC)c1)S(=O)(=O)c1ccc(N(C)C)cc1 [Compound 33] | 14%
27 | > 20000 nM | > 1000 nM | > 1000 nM | COc1ccc(S(=O)(=O)N(C)c2cc(OC)c(OC)c(OC)c2N(C)C)cc1 [Compound 19] | 0%
28 | > 20000 nM | > 1000 nM | > 1000 nM | CCOC(=O)CNc1cc(S(=O)(=O)N(CC(=O)OCC)c2cc(OC)c(OC)c(OC)c2)ccc1OC [Compound 47] | 0%

Source: paper PMC7918738, “Microtubule Destabilizing Sulfonamides as an Alternative to Taxane-Based Chemotherapy” (International Journal of Molecular Sciences, 2021)
